From PubChem BioAssay (NCI) come the findings set out here.

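Briefly, cells in 96-well plates were exposed to five compound concentrations for 48 h, and endpoints were estimated by linear interpolation. GI50 is the concentration that inhibits growth by half. The concentration for full growth arrest is given as TGI.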

What all share (assay): NCI tumour cell line growth inhibition, 48 h
The subject of assay [1] is A549 NSCLC.
In assay [2] the test system is CAKI-1 renal.
The test system of assay [3] is HOP-92 NSCLC.
Assay [4] deals with HT29 colon.
For assay [5], the system named is IGROV1 ovarian.
The subject of assay [6] is K-562 leukemia.
The subject of assay [7] is NCI-H23 lung.
The test system of assay [8] is SK-MEL-2 melanoma.
Assay [9] concerns SK-MEL-5 melanoma.
Assay [10] concerns SW-620 colon.

As for `C=CCc1cccc(C=O)c1O`, the GI50 in assay [1] was more than 100 µM; in [2] it was more than 100 µM; in assay [3] it was 0.809 µM; in assay [4], 67.9 µM; in [5], more than 100 µM; in assay [6], 32 µM. Moreover, the GI50 in [7] is more than 100 µM; in assay [8], more than 100 µM; in assay [9] it was 38.5 µM; in [10] it was 50.6 µM. Also, the TGI in [1] was more than 100 µM; in [2], more than 100 µM; in [3], 59 µM; in [4], more than 100 µM; in [5], more than 100 µM; in [6], more than 100 µM. Moreover, the TGI in assay [7], in assay [8], in assay [9] and in [10] was more than 100 µM throughout.
Consider `COc1cc(/C=C2\CC3C4CC=C5CC(OC(C)=O)CC[C@]5(C)C4CC[C@]3(C)C2=O)ccc1OCCN1CCCC1` (some centres undefined), for which the GI50 is 7.98 µM in assay [1]; 13.1 µM in assay [2]; 13.5 µM in assay [3]; 0.646 µM in assay [4]; 5.81 µM in assay [5]; 1.08 µM in assay [6]. For the same molecule, the GI50 was 14.2 µM in assay [7], 6.99 µM in assay [8], 1.38 µM in assay [9] and 4.89 µM in [10]. The TGI is more than 48.6 µM in assay [1]; 27 µM in assay [2]; 28.6 µM in assay [3]; more than 44.7 µM in assay [5]; 7.41 µM in [6]; 27.7 µM in assay [7]. Besides, the TGI in [8] worked out at 23.7 µM; in assay [9], 2.86 µM; in assay [10], 22.9 µM.
Consider `Cc1cc(I)cc(CNCCN(C)C)c1O`, for which the GI50 is 99.7 µM in assay [1]; 50.1 µM in assay [2]; 37.2 µM in assay [3]; 35.2 µM in [4]; 48.4 µM in assay [5]; more than 76.1 µM in [6]. The GI50 in assay [7] is 97.3 µM; in [8], more than 77.2 µM; in assay [9] it was 27.9 µM; in assay [10], more than 100 µM. For the same molecule, the TGI in assay [1], in [2], in assay [3], in assay [4], in [5] and in assay [6] was more than 100 µM throughout. In addition, the TGI in assay [7] was more than 100 µM; in assay [8], more than 100 µM; in assay [9] it was more than 80.8 µM; in assay [10] it was more than 100 µM.
Regarding `COc1cc2cc(NCc3cccc(Cl)c3)nc(C)c2cc1OC`, the GI50 is 3.21 µM in assay [1]; 2.7 µM in assay [2]; 0.597 µM in assay [3]; 0.462 µM in [4]; 1.32 µM in [5]; 1.68 µM in assay [6]. Also, the GI50 in assay [7] was 0.913 µM; in assay [8], 1.56 µM; in assay [9], 3.27 µM; in assay [10], 1.93 µM. Also, the TGI in assay [1] stood at 37.6 µM; in assay [2], 24.4 µM; in assay [3], 14.3 µM; in [4] it was 11.4 µM; in assay [5] it was 13.9 µM; in assay [6], 19.8 µM. Moreover, the TGI in assay [7] was determined as 13.9 µM; in assay [8] it was 12.6 µM; in assay [9], 13.7 µM; in [10], 12.6 µM.
For the molecule `N#CC1=C(N)Oc2c(sc3c(Br)cccc23)C1c1ccc([N+](=O)[O-])cc1` (centres undefined), the GI50 in assay [1] was 0.177 µM; in [2], 0.0837 µM; in assay [3], 0.0441 µM; in [4] it was 0.297 µM; in assay [5] it was 0.33 µM; in [6], 0.0458 µM. Besides, the GI50 was 0.131 µM in assay [7], 0.294 µM in assay [8], 0.0652 µM in assay [9] and 0.0708 µM in [10]. Also, the TGI in assay [1] was found to be 13.5 µM; in assay [2], 16.9 µM; in [3], 8.82 µM; in assay [4], 3.2 µM; in [5], 18.4 µM; in assay [6] it was 13.5 µM. The TGI in [7] was determined as 13.2 µM; in assay [8], 17.5 µM; in assay [9] it was 4.45 µM; in [10], 14.5 µM.
Regarding `COc1cc(/C=C/C(=O)c2cccc(-n3cc(-c4ccccc4)[nH]c3=O)c2)cc(OC)c1OC`, the GI50 in assay [1] is 4.03 µM; in assay [2], 1.75 µM; in [3] it was 10.8 µM; in [4], 0.662 µM; in assay [5], 2 µM; in [6], 0.502 µM. The GI50 in assay [7] was 1.43 µM; in assay [8] it was 2.06 µM; in assay [9], 1.4 µM; in [10], 0.39 µM. The TGI was more than 100 µM in [1]; 4.57 µM in [2]; 35.6 µM in assay [3]; 1.85 µM in assay [4]; 4.7 µM in assay [5]; more than 100 µM in assay [6]. Also, the TGI is 3.29 µM in assay [7], 4.98 µM in [8], 2.69 µM in [9] and 1.39 µM in assay [10].
Consider `CCC(=C(c1ccc(OCCN2CCCCC2)cc1)c1ccc(OCCN2CCCCC2)cc1)c1ccc(Cl)cc1`, for which the GI50 in assay [1] was 7.42 µM; in [2], 5.74 µM; in assay [3] it was 1.57 µM; in assay [4] it was 0.762 µM; in [5] it was 12.9 µM; in assay [6], 0.4 µM. Moreover, the GI50 in assay [7] is more than 16.7 µM; in assay [8], 9.5 µM; in assay [9], 2.83 µM; in assay [10], 4.1 µM. The TGI is more than 16.7 µM in assay [1]; more than 16.7 µM in assay [2]; more than 16.7 µM in assay [3]; more than 16.7 µM in assay [4]; more than 16.7 µM in assay [5]; 1.07 µM in [6]. Besides, the TGI is more than 16.7 µM in assay [7], more than 16.7 µM in assay [8], 5.3 µM in [9] and more than 16.7 µM in assay [10].
